According to ChEMBL document CHEMBL4814071, “Synthesis and antibacterial study of cell-penetrating peptide conjugated trifluoroacetyl and thioacetyl lysine modified peptides” (Eur J Med Chem, 2021):
Structures can show the parent of a compound that is named as a salt. Activity calls are given as the source filed them. No cut-off for these calls is given here. Where a SMILES comes first, the peptide text is derived from it. Bridges are numbered along the chain shown (N, C = ends). [ ]: non-standard residue; d: D form. The star is where a group is joined. X1 = CC[C@H](C)CCCCC(=O)*; Dab = NCC[C@H](N)C(=O)O; Tfa = O=C(C(F)(F)F)*

What was measured:
[1] = tested on: Escherichia coli; assay: Antibacterial activity against Escherichia coli assessed as reduction in microbial growth after 24 hrs in presence of polymyxin B by microplate reader method; type: functional
[2] = tested on: Escherichia coli; assay: Synergistic antibacterial activity against Escherichia coli assessed as fractional inhibitory concentration index incubated for 24 hrs in presence of Polymyxin B; type: functional
[3] = tested on: Cell membrane; assay: Disruption of membrane integrity in Staphylococcus aureus at 2 times MIC measured after 20 mins by SEM analysis
[4] = tested on: Lipid bilayer; assay: Binding affinity to bacterial inner membrane mimic POPE/POPG (3:1) LUVs assessed as increase in intensity by one-dimensional 19F NMR based analysis
[5] = tested on: Staphylococcus aureus; assay: Antibacterial activity against Staphylococcus aureus assessed as reduction in microbial growth after 24 hrs in presence of streptomycin by microplate reader method; type: functional
[6] = tested on: Staphylococcus aureus; assay: Antibiofilm activity against Staphylococcus aureus assessed as inhibition of biofilm formation incubated for 48 hrs by crystal violet staining assay; type: functional
[7] = tested on: Cell membrane; assay: Disruption of membrane integrity in Escherichia coli at 2 times MIC measured after 20 mins by SEM analysis
[8] = tested on: BE(2)-C; assay: Cytotoxicity against human BE(2)-C cells assessed as reduction in cell viability incubated for 48 hrs by MTT assay; type: cell-based
[9] = tested on: Staphylococcus aureus; assay: Antibiofilm activity against Staphylococcus aureus assessed as biofilm eradication at 2XMBEC incubated for 12 hrs by SYTO9/PI staining based microscopic analysis; type: functional, organism-based
[10] = tested on: Staphylococcus aureus; assay: Potentiation of streptomycin-induced antibacterial activity against Staphylococcus aureus assessed as fold change in streptomycin MIC incubated for 24 hrs by microplate reader method; type: functional
[11] = Hemolytic activity against mouse RBC at 1000 uM measured after 1 hr by microplate reader analysis; type: cell-based, Erythrocyte; settings: mouse red blood cells (erythrocytes), read-out: Activity
[12] = tested on: Escherichia coli; assay: Antibiofilm activity against Escherichia coli assessed as biofilm eradication at 2XMBEC incubated for 12 hrs by SYTO9/PI staining based microscopic analysis; type: functional, organism-based
[13] = tested on: Escherichia coli; assay: Antibacterial activity against Escherichia coli assessed as reduction in microbial growth after 24 hrs by microplate reader method; type: functional
[14] = biological target: NAD-dependent histone deacetylase SIR2 (Saccharomyces cerevisiae S288c) (UniProt P06700); assay: Inhibition of yeast sirtuin2-mediated Ura3 transcriptional silencing at telomeric locus assessed as yeast killing at 50 uM incubated for 72 hrs in presence of FOA by absorbance based analysis
Sequence of NAD-dependent histone deacetylase SIR2 (Saccharomyces cerevisiae S288c) (P06700 whole entry): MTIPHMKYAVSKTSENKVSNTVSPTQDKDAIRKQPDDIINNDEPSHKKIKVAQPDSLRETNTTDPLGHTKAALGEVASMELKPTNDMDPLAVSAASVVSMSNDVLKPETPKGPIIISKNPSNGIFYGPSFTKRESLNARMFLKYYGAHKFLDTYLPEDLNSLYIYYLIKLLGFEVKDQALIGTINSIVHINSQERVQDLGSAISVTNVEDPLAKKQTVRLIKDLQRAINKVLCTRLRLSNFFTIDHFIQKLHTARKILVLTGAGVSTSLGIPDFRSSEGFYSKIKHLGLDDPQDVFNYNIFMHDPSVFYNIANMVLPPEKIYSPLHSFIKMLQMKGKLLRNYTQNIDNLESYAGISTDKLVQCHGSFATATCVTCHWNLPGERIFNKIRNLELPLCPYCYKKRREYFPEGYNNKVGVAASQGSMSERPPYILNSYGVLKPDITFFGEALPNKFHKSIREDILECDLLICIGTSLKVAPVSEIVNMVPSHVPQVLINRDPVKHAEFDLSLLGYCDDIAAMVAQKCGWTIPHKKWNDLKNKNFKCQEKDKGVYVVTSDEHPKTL

[15] = tested on: Staphylococcus aureus; assay: Antibacterial activity against Staphylococcus aureus assessed as reduction in microbial growth after 24 hrs by microplate reader method; type: functional
[16] = tested on: Escherichia coli; assay: Potentiation of polymyxin B-induced antibacterial activity against Escherichia coli assessed as polymyxin B MIC incubated for 24 hrs by microplate reader method; type: functional
[17] = tested on: HeLa; assay: Cytotoxicity against human HeLa cells assessed as reduction in cell viability incubated for 48 hrs by MTT assay; type: cell-based
[18] = tested on: Lipid bilayer; assay: Binding affinity to mammalian membrane mimic DOPC/40% cholesterol assessed as calcein leakage at 20 uM by fluorescence based assay; type: ADME
[19] = tested on: Pseudomonas aeruginosa; assay: Synergistic antibacterial activity against Pseudomonas aeruginosa assessed as fractional inhibitory concentration index incubated for 24 hrs in presence of Polymyxin B; type: functional
[20] = tested on: Escherichia coli; assay: Antibiofilm activity against Escherichia coli assessed as as inhibition of biofilm formation incubated for 48 hrs by crystal violet staining assay; type: functional
[21] = tested on: Lipid bilayer; assay: Binding affinity to bacterial inner membrane mimic DOPE/DOPG (3:1) large unilamellar vesicles assessed as calcein leakage at 20 uM by fluorescence based assay
[22] = tested on: Staphylococcus aureus; assay: Potentiation of streptomycin-induced antibacterial activity against Staphylococcus aureus assessed as streptomycin MIC incubated for 24 hrs by microplate reader method; type: functional
[23] = tested on: Pseudomonas aeruginosa; assay: Antibacterial activity against Pseudomonas aeruginosa assessed as reduction in microbial growth after 24 hrs in presence of polymyxin B by microplate reader method; type: functional
[24] = Inhibition of transcriptional machinery using Puc19-lacCONS plasmid DNA and Escherichia coli RNA polymerase-sigma70 holoenzyme at 40 uM incubated for 35 mins followed by NTP addition for 30 mins by spectrofluorometer analysis; type: functional; settings: time 65.0 min
[25] = tested on: Pseudomonas aeruginosa; assay: Antibacterial activity against Pseudomonas aeruginosa assessed as reduction in microbial growth after 24 hrs by microplate reader method; type: functional
[26] = tested on: Escherichia coli; assay: Antibiofilm activity against Escherichia coli assessed as biofilm eradication incubated for 24 hrs by crystal violet staining assay; type: functional
[27] = tested on: Pseudomonas aeruginosa; assay: Potentiation of polymyxin B-induced antibacterial activity against Pseudomonas aeruginosa assessed as polymyxin B MIC incubated for 24 hrs by microplate reader method; type: functional
[28] = tested on: Staphylococcus aureus; assay: Antibiofilm activity against Staphylococcus aureus assessed as biofilm eradication incubated for 24 hrs by crystal violet staining assay; type: functional
[29] = tested on: Staphylococcus aureus; assay: Synergistic antibacterial activity against Staphylococcus aureus assessed as fractional inhibitory concentration index incubated for 24 hrs in presence of streptomycin; type: functional

## CC(=O)N[C@@H](CCCCN)C(=O)NCC(=O)N[C@@H](CC(C)C)C(=O)N[C@@H](CCCNC(=N)N)C(=O)N[C@@H](CCCCNC(=O)C(F)(F)F)C(=O)N[C@@H](Cc1ccccc1)C(=O)NCC(=O)N[C@@H](C)C(=O)N[C@@H](CCCCNC(=O)C(F)(F)F)C(=O)N[C@@H](CCCNC(=N)N)C(=O)N[C@@H](Cc1cnc[nH]1)C(=O)N[C@@H](CCCNC(=N)N)C(=O)N[C@@H](CS)C(N)=O (Ac-KGLRK(Tfa)FGAK(Tfa)RHRC-NH2)
[1]
  MIC: 7.81 µM
[2]
  fractional inhibitory concentration index (FICI): 0.19
[3]
  Activity: inactive
[4]
  Activity: Active
[5]
  MIC: 0.63 µM
[6]
  MBIC: 6.3 µM
[7]
  Activity: inactive
[8]
  IC50: 81.6 µM
[9]
  Activity: Active
[10]
  fold change (FC): 6
[11]
  hemolysis at 1 h, 1000 µM: < 5%
[12]
  Activity: Active
[13]
  MIC: 125 µM
[14]
  inhibition: Active
[15]
  MIC: 1.5 µM
[16]
  MIC: 0.05 µM
[17]
  IC50: 84.4 µM
[18]
  Activity: < 20%
[19]
  fractional inhibitory concentration index (FICI): 0.36
[20]
  MBIC: inactive
[21]
  Activity: 70%
[22]
  MIC: 0.38 µM
[23]
  MIC: 25 µM
[24]
  inhibition: Active
[25]
  MIC: > 250 µM
[26]
  MBEC: inactive
[27]
  MIC: 0.1 µM
[28]
  MBEC: 12.5 µM
[29]
  fractional inhibitory concentration index (FICI): 0.3

## CC(=O)N[C@@H](Cc1ccc(O)cc1)C(=O)NCC(=O)N[C@@H](CCCNC(=N)N)C(=O)N[C@@H](CCCCN)C(=O)N[C@@H](CCCCN)C(=O)N[C@@H](CCCNC(=N)N)C(=O)N[C@@H](CCCNC(=N)N)C(=O)N[C@@H](CCC(N)=O)C(=O)N[C@@H](CCCNC(=N)N)C(=O)N[C@@H](CCCNC(=N)N)C(=O)N[C@@H](CCCNC(=N)N)C(=O)O
[13]
  MIC: 50 µM
[15]
  MIC: 1.5 µM
[25]
  MIC: > 100 µM

## CC[C@H](C)CCCCC(=O)N[C@@H](CCN)C(=O)N[C@H](C(=O)N[C@@H](CCN)C(=O)N[C@H]1CCNC(=O)[C@H]([C@@H](C)O)NC(=O)[C@H](CCN)NC(=O)[C@H](CCN)NC(=O)[C@H](CC(C)C)NC(=O)[C@@H](Cc2ccccc2)NC(=O)[C@H](CCN)NC1=O)[C@@H](C)O (X1-[Dab]T[Dab][Dab][Dab][dF]L[Dab][Dab]T; lactam 4-C)
[13]
  MIC: 0.09 µM
[25]
  MIC: 0.15 µM
